# According to patent US12220440B2, “Drug composition, method for treating infection, disinfecting composition, and drug adjuvant” (priority 2022, dated 2025):
# Like-named read-outs stand apart in the source and are kept apart here. Peptide text beside a SMILES is read from it.
# Tests used:
# Type in all cases: cell-based
# [1] = tested on: P. aeruginosa (colistin-susceptible); assay: MIC, colistin-susceptible P. aeruginosa isolates, with and without otilonium bromide; conditions: Pseudomonas aeruginosa
# [2] = tested on: colistin-susceptible E. coli; assay: Time-kill curves
# Protocol: (§1) However, the effective bactericidal concentration of colistin could be reduced to 8 μg/ml in the presence of 20 μg/ml of otilonium bromide. For colistin-susceptible E. coli, 8 μg/ml of colistin is required to eradicate the strains. However, in the presence of 20 μg/ml of otilonium bromide 1 μg/ml colistin is sufficient to achieve complete eradication of the organism. […] Thus, without intending to be limited by theory, it is believed that this synergistic mechanism is not limited to the inhibition of the colistin resistance mechanism.
# [3] = tested on: colistin-resistant E. coli; assay: Time-kill curves
# Protocol: as §1
# [4] = tested on: E. coli J53; assay: Ca2+ / Mg2+ MIC-dependency in cation-supplemented MHB; conditions: 37° C., 16 hours
# Protocol: For FIGS. 5c-5d, colistin-susceptible E. coli J53 is treated with colistin and colistin+Ob as indicated in MHB supplemented with different concentrations of Mg^2+ and Ca^2+ ions. The incubation is conducted at 37° C. for 16 hours.
# Accordingly, it is believed that the addition of a chelant; or a chelant for divalent ions; or a divalent cation chelant, may further improve the activity of the drug formulation, method of use/treatment, disinfection composition, etc. of the present invention.
# [5] = in the presence of 20 μg/ml of otilonium bromide
smiles,measurement,setting,value
"CCC(C)CCCC(=O)N[C@@H](CCN)C(=O)N[C@H](C(=O)N[C@@H](CCN)C(=O)N[C@H]1CCNC(=O)[C@H]([C@@H](C)O)NC(=O)[C@H](CCN)NC(=O)[C@H](CCN)NC(=O)[C@H](CC(C)C)NC(=O)[C@@H](CC(C)C)NC(=O)[C@H](CCN)NC1=O)[C@@H](C)O (stereo partly drawn) [Colistin] (HELM PEPTIDE1{[CCC(C)CCCC(=O)[*:2]].[Dab].T.[Dab].[Dab].[Dab].[dL].L.[Dab].[Dab].T}$PEPTIDE1,PEPTIDE1,5:R3-11:R2$$$V2.0)",MIC,"[1]; P. aeruginosa PA01, colistin-susceptible, colistin alone, read-out: Colistin MIC, Colistin",2 µg/mL
same,MIC,"[1]; P. aeruginosa PA01, colistin-susceptible, in the presence of 10 ug/ml Ob, read-out: Colistin MIC, Colistin + 10 ug/ml Ob",0.5 µg/mL
same,MIC,"[1]; P. aeruginosa PA01, colistin-susceptible, in the presence of 20 ug/ml Ob, read-out: Colistin MIC, Colistin + 20 ug/ml Ob",0.25 µg/mL
same,MIC,"[1]; P. aeruginosa PAER 2011-3010, colistin-susceptible, colistin alone, read-out: Colistin MIC, Colistin",2 µg/mL
same,MIC,"[1]; P. aeruginosa PAER 2011-3010, colistin-susceptible, in the presence of 10 ug/ml Ob, read-out: Colistin MIC, Colistin + 10 ug/ml Ob",1 µg/mL
same,MIC,"[1]; P. aeruginosa PAER 2011-3010, colistin-susceptible, in the presence of 20 ug/ml Ob, read-out: Colistin MIC, Colistin + 20 ug/ml Ob",0.25 µg/mL
same,MIC,"[1]; P. aeruginosa PAER 2011-3252, colistin-susceptible, colistin alone, read-out: Colistin MIC, Colistin",2 µg/mL
same,MIC,"[1]; P. aeruginosa PAER 2011-3252, colistin-susceptible, in the presence of 10 ug/ml Ob, read-out: Colistin MIC, Colistin + 10 ug/ml Ob",0.5 µg/mL
same,MIC,"[1]; P. aeruginosa PAER 2011-3252, colistin-susceptible, in the presence of 20 ug/ml Ob, read-out: Colistin MIC, Colistin + 20 ug/ml Ob",0.25 µg/mL
same,MIC,"[1]; P. aeruginosa PAER 2012-1527, colistin-susceptible, colistin alone, read-out: Colistin MIC, Colistin",2 µg/mL
same,MIC,"[1]; P. aeruginosa PAER 2012-1527, colistin-susceptible, in the presence of 10 ug/ml Ob, read-out: Colistin MIC, Colistin + 10 ug/ml Ob",2 µg/mL
same,MIC,"[1]; P. aeruginosa PAER 2012-1527, colistin-susceptible, in the presence of 20 ug/ml Ob, read-out: Colistin MIC, Colistin + 20 ug/ml Ob",0.5 µg/mL
same,MIC,"[1]; P. aeruginosa PAERC 10.296, colistin-susceptible, colistin alone, read-out: Colistin MIC, Colistin",2 µg/mL
same,MIC,"[1]; P. aeruginosa PAERC 10.296, colistin-susceptible, in the presence of 10 ug/ml Ob, read-out: Colistin MIC, Colistin + 10 ug/ml Ob",0.0625 µg/mL
same,MIC,"[1]; P. aeruginosa PAERC 10.296, colistin-susceptible, in the presence of 20 ug/ml Ob, read-out: Colistin MIC, Colistin + 20 ug/ml Ob",0.0625 µg/mL
same,MIC,"[1]; P. aeruginosa PAERC 11.2309, colistin-susceptible, colistin alone, read-out: Colistin MIC, Colistin",2 µg/mL
same,MIC,"[1]; P. aeruginosa PAERC 11.2309, colistin-susceptible, in the presence of 10 ug/ml Ob, read-out: Colistin MIC, Colistin + 10 ug/ml Ob",0.5 µg/mL
same,MIC,"[1]; P. aeruginosa PAERC 11.2309, colistin-susceptible, in the presence of 20 ug/ml Ob, read-out: Colistin MIC, Colistin + 20 ug/ml Ob",2 µg/mL
same,MIC,"[1]; P. aeruginosa PAERC 11.236, colistin-susceptible, colistin alone, read-out: Colistin MIC, Colistin",2 µg/mL
same,MIC,"[1]; P. aeruginosa PAERC 11.236, colistin-susceptible, in the presence of 10 ug/ml Ob, read-out: Colistin MIC, Colistin + 10 ug/ml Ob",0.5 µg/mL
same,MIC,"[1]; P. aeruginosa PAERC 11.236, colistin-susceptible, in the presence of 20 ug/ml Ob, read-out: Colistin MIC, Colistin + 20 ug/ml Ob",0.5 µg/mL
same,MIC,"[1]; P. aeruginosa PAERC 11.603, colistin-susceptible, colistin alone, read-out: Colistin MIC, Colistin",2 µg/mL
same,MIC,"[1]; P. aeruginosa PAERC 11.603, colistin-susceptible, in the presence of 10 ug/ml Ob, read-out: Colistin MIC, Colistin + 10 ug/ml Ob",0.5 µg/mL
same,MIC,"[1]; P. aeruginosa PAERC 11.603, colistin-susceptible, in the presence of 20 ug/ml Ob, read-out: Colistin MIC, Colistin + 20 ug/ml Ob",0.25 µg/mL
same,MIC,"[1]; P. aeruginosa PAERC 12.1478, colistin-susceptible, colistin alone, read-out: Colistin MIC, Colistin",2 µg/mL
same,MIC,"[1]; P. aeruginosa PAERC 12.1478, colistin-susceptible, in the presence of 10 ug/ml Ob, read-out: Colistin MIC, Colistin + 10 ug/ml Ob",0.5 µg/mL
same,MIC,"[1]; P. aeruginosa PAERC 12.1478, colistin-susceptible, in the presence of 20 ug/ml Ob, read-out: Colistin MIC, Colistin + 20 ug/ml Ob",0.125 µg/mL
same,colistin required to eradicate the strains (time-kill),[2]; colistin alone,8 µg/mL
same,colistin sufficient for complete eradication (time-kill),[2]; [5],1 µg/mL
same,colistin concentration inhibiting growth (time-kill),[3]; colistin alone,≥ 32 µg/mL
same,effective bactericidal concentration of colistin (time-kill),[3]; [5],8 µg/mL
same,effect of supplemented Ca2+ and Mg2+ on MIC,[4],increase the MIC
